Assay results reported in US5399697A, “N,N',N'-trisubstituted-5-bisaminomethylene-1,3-dioxane-4,6-dione inhibitors of acyl-CoA:cholesterol-acyl transferase” (American Home Products Corporation, priority 1993, dated 1995).
Like-named read-outs stand apart in the source and are kept apart here.

Key:
[1] = system: plasma cholesterol; assay: Plasma cholesterol in cholesterol-cholic acid fed rats; assay type: in vivo; conditions: Rattus norvegicus, 96 h, oral gavage, four days, read-out: % Decrease in Plasma Cholesterol
Method: In addition, representative compounds were studied in vivo in cholesterol-cholic acid fed rats to determine the percent decrease of cholesterol in their plasma. This study involves rats which are, prior to testing, trained for one week to eat over a four hour time period each day. Upon initiation of the experiment, the rats diet is supplemented with 1.0 percent cholesterol and 0.25 percent cholic acid. The rats are dosed with the test compound by oral gavage just prior to adjust following the four hour feeding period. This is repeated for four days. On the fifth day, the rats are sacrificed and the total plasma cholesterol content is determined. The percent decrease in elevated plasma cholesterol levels is calculated in comparison with […].

[2] = system: acyl-coenzyme A: cholesterol acyltransferase; assay: Inhibition of ACAT / intracellular cholesterol esterification in vitro (procedure of Ross et al.); assay type: cell-based; conditions: for % Inhibition: 25 μM

SMILES	% Inhibition [2] [%]	IC50 ([2]; read-out: IC50) [nM]	also measured
COc1ccc(NC(=C2C(=O)OC(C)(C)OC2=O)N(Cc2ccc(C(C)(C)C)cc2)C(C)CCCC(C)C)c(OC)c1 (centres unmarked) [Compound 29, 5-[[(2,4-Dimethoxyphenyl)amino][[[4-(1,1-dimethylethyl)phenyl]methyl](1,5-dimethylhexyl)-amino]methylene]-2,2-dimethyl-1,3-dioxane-4,6-dione]	99	230	change in vivo at 100 mg/kg ([1]; 100 mg/kg): -84%
CCCCCCCN(Cc1ccc(OCCC(C)C)cc1)C(Nc1ccc(N(C)C)cc1)=C1C(=O)OC(C)(C)OC1=O [Compound 22, 5-[[[4-(Dimethylamino)phenyl]amino][heptyl[[[4-(3-methylbutyl)oxy]phenyl]methyl]amino]-methylene]-2,2-dimethyl-1,3-dioxane4,6-dione]	93	370	change in vivo at 60 mg/kg ([1]; 60 mg/kg): -46%
CCCCCC(C)N(Cc1ccc(OCCC(C)C)cc1)C(Nc1ccc(OC)cc1OC)=C1C(=O)OC(C)(C)OC1=O (centres unmarked) [Compound 35]	99	540	change in vivo at 40 mg/kg [1]: -55%
CCCCCC(C)N(Cc1ccc(OCCC(C)C)cc1)C(Nc1ccc(N(C)C)cc1)=C1C(=O)OC(C)(C)OC1=O (centres unmarked) [Compound 38, 5-[[[4-(Dimethylamino)phenyl]amino][[[4-(3-methylbutoxy)phenyl]methyl](1-methylhexylhexyl)amino]methylene]-2,2-dimethyl-1,3-dioxane-4,6-dione]	99	210	change in vivo at 40 mg/kg [1]: -58%
CCCCCC(C)N(Cc1ccc(CC(C)C)cc1)C(Nc1cccc(OCc2ccccc2)c1)=C1C(=O)OC(C)(C)OC1=O (centres unmarked) [Compound 34]	98	1100	change in vivo at 20 mg/kg [1]: -32%
CCCCc1ccc(CN(C(Nc2ccc(N(C)C)cc2)=C2C(=O)OC(C)(C)OC2=O)C(C)CCCC(C)(C)O)cc1 (centres unmarked) [Compound 45, 5-[[[(4-Butylphenyl)methyl](5-hydroxy-1,5-dimethylhexyl)amino][[4-(dimethylamino)phenyl]-amino]-methylene]-2,2-dimethyl-1,3-dioxane-4,6-dione]	90	5200	change in vivo at 20 mg/kg [1]: -29%
COc1ccc(NC(=C2C(=O)OC(C)(C)OC2=O)N(Cc2ccc(CC(C)C)cc2)[C@@H](CO)Cc2ccccc2)c(OC)c1 [Compound 12, (R)-5-[[(2,4-Dimethoxyphenyl)amino][[(1R)1-(hydroxymethyl)-2-phenylethyl][[4-(2-methyl-propyl)phenyl]methyl]amino]methylene]-2,2-dimethyl-1,3-dioxane-4.6-dione]	96		
CCCCC(CC)N(Cc1ccc(CC(C)(C)C)cc1)C(Nc1ccc(N(C)C)cc1C)=C1C(=O)OC(C)(C)OC1=O (centres unmarked) [Compound 66, 5-[[[4-(Dimethylamino)-2-methylphenyl]amino][[[4-(2,2-dimethylpropyl)phenyl]methyl](1-ethylpentyl)amino]methylene]-2,2-dimethyl-1,3-dioxane-4,6-dione]	98	190	
CCCCCCCN(Cc1ccc(C(C)(C)C)cc1)C(Nc1ccc(OCCCCCC)cc1)=C1C(=O)OC(C)(C)OC1=O [Compound 25, 5-[[[[4-(1,1-Dimethylethyl)phenyl]methyl]heptylamino][[4-(hexyloxy)phenyl]amino]methylene]2,2-dimethyl-3-dioxane-4,6-dione]	94	500	
COc1ccc(NC(=C2C(=O)OC(C)(C)OC2=O)N(Cc2ccc(CC(C)C)cc2)[C@@H](CO[Si](C)(C)C(C)(C)C)CC(C)C)c(OC)c1 [Compound 71]	97		IC50 [2]: 530 nM
CCCCCC(C)N(Cc1ccc(CC(C)(C)C)cc1)C(Nc1ccc(C)cc1C)=C1C(=O)OC(C)(C)OC1=O (centres unmarked) [Compound 64]	99	490	
CCCCCCCCCCN(Cc1ccc(C(C)(C)C)cc1)C(Nc1ccc(OC)cc1OC)=C1C(=O)OC(C)(C)OC1=O [Compound 65]	98	2300	
